For one data set, the system named is human Factor 11 mRNA. Briefly: Dose-dependent inhibition of human Factor 11 in cyano primary hepatocytes, electroporation (Example 6). It counts as cell-based. To be noted: ~16 hours. The protocol: Cells were plated at a density of 35,000 cells per well and transfected via electroporation with 0.74 nM, 2.2 nM, 6.7 nM, 20 nM, 60 nM, and 180 nM concentrations of antisense oligonucleotide, as specified in Table 13. After a treatment period of approximately 16 hours, RNA was isolated from the cells and human Factor 11 mRNA levels were measured by quantitative real-time PCR. Human Factor 11 primer probe set RTS 2966 was used to measure mRNA levels. Factor 11 mRNA levels were adjusted according to total RNA content, as measured by RIBOGREEN. Results are presented as percent inhibition of human Factor 11, relative to untreated control cells.

A further data set relates to blood coagulation. Briefly: PT and aPTT assay in cynomolgus monkeys (Example 46). It counts as in vivo. Conditions: platelet poor plasma, relative to PBS group. The protocol:
Groups, each consisting of two male and two female monkeys, were injected subcutaneously with 25 mg/kg of ISIS 416850, ISIS 449709, ISIS 445522, ISIS 449710, ISIS 449707, ISIS 449711, ISIS 449708, 416858, and ISIS 445531. Antisense oligonucleotide was administered to the monkeys at 25 mg/kg three times per week for week 1 and 25 mg/kg twice per week for weeks 2 to 8. A control group, consisting of two male and two female monkeys was injected subcutaneously with PBS according to the same dosing regimen. Body weights were taken 14 days and 7 days before the start of treatment and were then measured weekly throughout the treatment period. Blood samples were collected 14 days and 5 days before the start of treatment and subsequently several times during the dosing regimen for PT and aPTT measurements, and measurement of various hematologic factors. On day 55, the monkeys were euthanized by exsanguination while under deep anesthesia, and organs harvested for further analysis.
PT and aPTT were measured using platelet poor plasma (PPP) from […] treated with ISIS oligonucleotides. PT and aPTT values are provided in Tables 148 and 149 and are reported as International Normalized Ratio (INR) values. INR values for PT and aPTT were determined by dividing the PT or aPTT value for each experimental group by the PT or aPTT for the PBS treated group. This ratio was then raised to the power of the International Sensitivity Index (ISI) of the tissue factor used. […] Therefore, antisense reduction of Factor 11 with these ISIS oligonucleotides is useful for inhibiting the formation of a thrombus or clot in response to an abnormal vessel wall, but not in response to tissue injury.

Data set [1] can be described thus: Tolerability in Sprague-Dawley rats: body weight and organ weight (Example 44). It is filed as in vivo. To be noted: 50 mg/kg s.c. twice per week for 6 weeks; for Change in Kidney weight / Change in Liver weight / Change in Spleen weight: end of study.

Experimental findings from US20230263822A1, “MODULATION OF FACTOR 11 EXPRESSION” (Ionis Pharmaceuticals, Inc., priority 2008, published 2023) are described below.

Strand notation (5' to 3'): a small letter for the sugar, then the base; units joined by * are phosphorothioate-linked, units joined directly phosphodiester-linked; [ ] holds rarer units or linkages, { } end groups; capitals alone tell only the bases. e = 2'-O-(2-methoxyethyl) (MOE); [5mC] = 5-methylcytosine; d = 2'-deoxy (DNA)

For the substance “416925 (antisense GGTGCACAGTTTCTGGCAGG; 3-14-3 gapmer chemistry, further chemistry not given here) [compound 416925]”, the “percent inhibition of human Factor 11 mRNA relative to untreated control cells” value in the data set on human Factor 11 mRNA (0.74 nM) is listed as 0%; in the data set with human Factor 11 mRNA (2.2 nM), 9%; in the data set on human Factor 11 mRNA (6.7 nM), 1%; in the data set with human Factor 11 mRNA (20 nM), 48%; with human Factor 11 mRNA (60 nM) it was 55%; with human Factor 11 mRNA (180 nM) it was 76%.
Turning to “416999 (antisense GCACAGTTTCTGGCAGGCCT; 2-13-5 gapmer chemistry, further chemistry not given here) [compound 416999]”, the “percent inhibition of human Factor 11 mRNA relative to untreated control cells” value was 3% in the data set on human Factor 11 mRNA (0.74 nM); 40% in the data set with human Factor 11 mRNA (2.2 nM); 36% with human Factor 11 mRNA (6.7 nM); 62% with human Factor 11 mRNA (20 nM); 67% in the data set with human Factor 11 mRNA (60 nM); 82% in the data set with human Factor 11 mRNA (180 nM).
As to “417003 (antisense TGGTGCACAGTTTCTGGCAG; 2-13-5 gapmer chemistry, further chemistry not given here) [compound 417003]”, the “percent inhibition of human Factor 11 mRNA relative to untreated control cells” value is reported as 12% with human Factor 11 mRNA (0.74 nM); 18% in the data set on human Factor 11 mRNA (2.2 nM); 19% in the data set on human Factor 11 mRNA (6.7 nM); 39% in the data set with human Factor 11 mRNA (20 nM); 58% in the data set with human Factor 11 mRNA (60 nM); 74% with human Factor 11 mRNA (180 nM).
In the case of “ISIS 449707: 3-8-3, 4-8-4, 2-10-2, 3-10-3 or 4-10-4 MOE microwalk gapmer (Table 46) (antisense e[5mC]*eA*e[5mC]*eA*dG*dT*dT*dT*d[5mC]*dT*dG*dG*e[5mC]*eA*eG*eG)”, the “PT ratio (INR)” value in the data set with blood coagulation (Day 10) is given as 0.95; in the data set on blood coagulation (Day 17), 0.97; in the data set with blood coagulation (Day 24) it was 0.95; with blood coagulation (Day 31), 0.96; in the data set on blood coagulation (Day 38) it was 1.00; with blood coagulation (Day 45) it was 0.96. For the same substance, the “PT ratio (INR)” value is reported as 0.96 in the data set with blood coagulation (Day 52), 1.00 in the data set on blood coagulation (Day 55), 0.94 in the data set on blood coagulation (Day −5) and 1.01 with blood coagulation (Day −14). Further, the “aPTT ratio relative to PBS group” value is 0.92 with blood coagulation (Day 10); 0.94 with blood coagulation (Day 17); 0.93 in the data set with blood coagulation (Day 24); 0.95 in the data set on blood coagulation (Day 31); 0.99 in the data set with blood coagulation (Day 38); 1.00 in the data set on blood coagulation (Day 45). The “aPTT ratio relative to PBS group” value is recorded as 0.99 with blood coagulation (Day 52), 1.04 with blood coagulation (Day 55), 0.87 in the data set with blood coagulation (Day −5) and 0.90 in the data set on blood coagulation (Day −14). Moreover, the body weight in data set [1] is on record as 352 g. For the same substance, the “Change in Kidney weight” value in data set [1] is listed as “+80%”. Moreover, in data set [1], the “Change in Liver weight” value was “+41%”. Also, the “Change in Spleen weight” value in data set [1] is on record as “+400%”.
As for “ISIS 449708: 3-8-3, 4-8-4, 2-10-2, 3-10-3 or 4-10-4 MOE microwalk gapmer (Table 46) (antisense eA*e[5mC]*eA*dG*dT*dT*dT*d[5mC]*dT*dG*dG*e[5mC]*eA*eG)”, the “PT ratio (INR)” value was 0.98 with blood coagulation (Day 10); 1.00 in the data set with blood coagulation (Day 17); 0.95 in the data set on blood coagulation (Day 24); 1.06 in the data set on blood coagulation (Day 31); 0.99 with blood coagulation (Day 38); 0.99 in the data set with blood coagulation (Day 45). Further, the “PT ratio (INR)” value in the data set with blood coagulation (Day 52) was 0.99; in the data set on blood coagulation (Day 55) it was 1.04; with blood coagulation (Day −5), 0.95; in the data set on blood coagulation (Day −14), 1.03. The “aPTT ratio relative to PBS group” value in the data set with blood coagulation (Day 10) is listed as 1.06; in the data set on blood coagulation (Day 17), 1.05; in the data set with blood coagulation (Day 24), 1.01; in the data set with blood coagulation (Day 31), 1.09; in the data set with blood coagulation (Day 38), 1.06; with blood coagulation (Day 45), 1.06. Moreover, the “aPTT ratio relative to PBS group” value with blood coagulation (Day 52) is given as 1.08; with blood coagulation (Day 55), 1.11; in the data set with blood coagulation (Day −5), 1.01; in the data set on blood coagulation (Day −14), 1.07. The same substance registered a body weight in data set [1] of 382 g. The “Change in Kidney weight” value in data set [1] was “+40%”. Moreover, the “Change in Liver weight” value in data set [1] is “+31%”. In data set [1], the “Change in Spleen weight” value is on record as “+259%”.
With “ISIS 449709: 3-8-3, 4-8-4, 2-10-2, 3-10-3 or 4-10-4 MOE microwalk gapmer (Table 46) (antisense eG*e[5mC]*eA*e[5mC]*dA*dG*dT*dT*dT*d[5mC]*dT*dG*dG*d[5mC]*eA*eG*eG*e[5mC])”, the “PT ratio (INR)” value in the data set on blood coagulation (Day 10) was found to be 0.95; in the data set on blood coagulation (Day 17), 0.95; with blood coagulation (Day 24), 0.95; in the data set on blood coagulation (Day 31), 0.95; in the data set on blood coagulation (Day 38) it was 0.97; with blood coagulation (Day 45), 0.97. The “PT ratio (INR)” value in the data set on blood coagulation (Day 52) amounted to 0.99; in the data set with blood coagulation (Day 55), 1.03; in the data set on blood coagulation (Day −5), 0.96; in the data set on blood coagulation (Day −14), 1.00. The “aPTT ratio relative to PBS group” value in the data set on blood coagulation (Day 10) came out at 0.99; in the data set with blood coagulation (Day 17) it was 1.03; in the data set with blood coagulation (Day 24), 1.05; in the data set with blood coagulation (Day 31) it was 1.08; in the data set on blood coagulation (Day 38), 1.08; in the data set with blood coagulation (Day 45), 1.15. Besides, the “aPTT ratio relative to PBS group” value is listed as 1.09 in the data set on blood coagulation (Day 52), 1.17 with blood coagulation (Day 55), 0.91 in the data set with blood coagulation (Day −5) and 0.99 in the data set with blood coagulation (Day −14). Further, the body weight in data set [1] amounted to 376 g. Further, the “Change in Kidney weight” value in data set [1] is recorded as “+19%”. The “Change in Liver weight” value in data set [1] is reported as “+8%”. Moreover, the “Change in Spleen weight” value in data set [1] is “+231%”.
